Test: Inhibition of Saccharomyces cerevisiae alpha-Glucosidase using p-nitrophenyl-alpha-D-glucopyranoside as substrate assessed as formation of para-nitrophenol preincubated for 5 mins followed by addition of substrate measured after 15 mins by microplate reader analysis

Row | Compound | IC50
1 | COc1cc(O)cc(C(=O)O)c1C(=O)c1c(O)c(Cl)c(C)c(Cl)c1O | 42 nM
2 | COC(=O)[C@]1(Cc2ccc(O)c(CC=C(C)C)c2)OC(=O)C(OC)=C1c1ccc(O)c(O)c1 | 16 nM
3 | COC(=O)c1cc(O)cc(O)c1C(=O)c1c(O)c(Cl)c(C)c(Cl)c1O | > 2000 nM
4 | COc1cc(/C=C2\OC(=O)C(c3ccc(O)cc3)=C2O)cc(OC)c1O | 79 nM
5 | COc1cc(O)cc(C(=O)O)c1Oc1cc(C)cc(O)c1C(=O)O | > 2000 nM
6 | COC(=O)c1c(O)c(Cl)c(C)c(Cl)c1Oc1c(OC)cc(O)cc1C(=O)O | 1480 nM
7 | COC(=O)c1cc(O)cc(O)c1C(=O)c1c(O)cc(C)cc1O | 199 nM
8 | COC(=O)c1cc(O)cc(OC)c1Oc1cc(C)cc(O)c1C(=O)O [ASTERRIC ACID] | > 2000 nM
9 | COC(=O)c1cc(O)cc(OC)c1Oc1cc(C)c(Cl)c(O)c1C(=O)OC [METHYL CHLOROASTERRATE] | > 2000 nM
10 | O=c1c(O)c(-c2ccc(O)c(O)c2)oc2cc(O)cc(O)c12 [QUERCETIN] | 15 nM

More lines, now with the values ahead:

Row | IC50 | Compound
11 | 22 nM | COc1cc(/C=C2\OC(=O)C(c3ccc(O)cc3)=C2O)ccc1O
12 | > 2000 nM | COC(=O)c1cc(O)cc(OC)c1Oc1cc(C)c(Cl)c(O)c1C(=O)O
13 | 385 nM | COC(=O)[C@]1(Cc2ccccc2)OC(=O)C(O)=C1c1ccccc1
14 | 126 nM | COC(=O)[C@]1(Cc2ccc(O)cc2)OC(=O)C(O)=C1c1ccc(O)cc1
15 | > 2000 nM | COC(=O)c1cc(O)cc(OC)c1Oc1cc(CO)cc(O)c1C(=O)O
16 | 685 nM | C[C@@H]1O[C@@H](O[C@@H]2[C@@H](O)[C@H](O)[C@H](O[C@H]3[C@H](O)[C@@H](O)C(O)O[C@@H]3CO)O[C@H]2CO)[C@@H](O)[C@H](O)[C@H]1N[C@H]1C=C(CO)[C@@H](O)[C@H](O)[C@H]1O (some centres undefined)
17 | 2700 nM | O=C1O/C(=C\c2ccc(O)cc2)C(O)=C1c1ccc(O)cc1 [ASPULVINONE E]
18 | 91 nM | COC(=O)c1cc(O)cc(OC)c1Oc1c(Cl)c(C)c(Cl)c(O)c1C(=O)O [GEODIN HYDRATE]
19 | 1450 nM | COC(=O)c1cc(O)cc(OC)c1Oc1c(Cl)c(C)c(Cl)c(O)c1C(=O)OC [METYL DICHLOROASTERRATE]
